This note sets out measurements from patent publication US11420970B1 (NOVARTIS AG, priority 2019, dated 2022).

NSD2 [1-1365], sequence (O96028 whole entry): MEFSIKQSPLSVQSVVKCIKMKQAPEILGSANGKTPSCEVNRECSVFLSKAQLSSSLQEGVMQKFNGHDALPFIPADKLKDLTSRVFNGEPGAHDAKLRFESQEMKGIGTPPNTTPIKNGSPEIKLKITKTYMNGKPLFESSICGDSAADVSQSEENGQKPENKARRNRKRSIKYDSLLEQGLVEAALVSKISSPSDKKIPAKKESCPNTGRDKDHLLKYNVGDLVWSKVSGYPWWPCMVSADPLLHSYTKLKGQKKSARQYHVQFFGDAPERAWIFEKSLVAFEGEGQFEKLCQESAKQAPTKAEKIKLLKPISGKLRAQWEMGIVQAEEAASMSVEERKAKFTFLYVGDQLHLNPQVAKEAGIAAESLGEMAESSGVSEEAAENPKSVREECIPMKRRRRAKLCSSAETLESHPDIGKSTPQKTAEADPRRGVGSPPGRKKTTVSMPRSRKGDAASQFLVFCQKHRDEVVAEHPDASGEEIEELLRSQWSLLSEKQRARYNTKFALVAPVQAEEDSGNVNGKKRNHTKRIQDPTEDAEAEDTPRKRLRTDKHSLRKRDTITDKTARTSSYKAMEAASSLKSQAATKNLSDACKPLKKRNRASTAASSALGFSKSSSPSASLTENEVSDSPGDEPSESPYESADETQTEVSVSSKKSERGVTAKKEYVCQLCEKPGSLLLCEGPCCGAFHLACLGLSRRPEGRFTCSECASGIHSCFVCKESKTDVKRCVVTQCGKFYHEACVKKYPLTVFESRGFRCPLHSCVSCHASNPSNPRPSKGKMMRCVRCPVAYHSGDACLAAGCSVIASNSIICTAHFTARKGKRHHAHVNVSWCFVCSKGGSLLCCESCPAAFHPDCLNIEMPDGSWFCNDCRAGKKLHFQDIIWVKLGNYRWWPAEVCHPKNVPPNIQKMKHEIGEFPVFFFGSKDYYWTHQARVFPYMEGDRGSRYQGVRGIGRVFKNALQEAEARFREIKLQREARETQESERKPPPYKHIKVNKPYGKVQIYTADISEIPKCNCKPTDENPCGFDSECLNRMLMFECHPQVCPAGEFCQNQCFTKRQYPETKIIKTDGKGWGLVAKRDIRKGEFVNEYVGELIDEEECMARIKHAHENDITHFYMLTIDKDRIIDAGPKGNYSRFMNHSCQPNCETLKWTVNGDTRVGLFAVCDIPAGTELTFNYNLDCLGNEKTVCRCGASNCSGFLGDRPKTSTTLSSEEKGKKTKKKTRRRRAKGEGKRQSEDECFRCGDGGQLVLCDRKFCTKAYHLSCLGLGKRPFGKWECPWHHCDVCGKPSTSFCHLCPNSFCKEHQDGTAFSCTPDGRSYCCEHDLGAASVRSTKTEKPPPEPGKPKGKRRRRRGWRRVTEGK

In the first assay the target is NSD2 [1-1365] (Homo sapiens (Human), UniProt O96028). Description: LC-MS/MS-based NSD2 enzymatic assay (SAH production). The class given is biochemical. The following applies: NSD2 biochemical activity, class symbols; read-out: NSD2 IC50. Here is the method:
LC-MS/MS-Based NSD2 Enzymatic Assay
This assay employed LC-MS/MS technology to monitor the SAH production from the NSD2 enzymatic reaction. The enzymatic reaction was performed in white proxiplate plus 384-well microplate (Perkin Elmer). The reaction mixture (10 μL) were composed of 8 nM NSD2 [1-1365], […] SAM (USB, 10601) and 400 nM nucleosome (purified from mouse liver) in reaction buffer (20 mM Tris-HCl, pH at 8.0, 0.01% Tween 20, 10 mM MgCl2, 50 mM NaCl, 1 mM DTT, 1 mM TCEP (pH7.5)). After 90 min incubation at room temperature, 3 μL quenching solution containing 2.5% TFA with 320 nM d4-SAH was added to stop the reaction.
For the inhibition assay, compound solutions were transferred into the wells by Mosquito™ (TTP LabTech). The inhibition assays were carried out by preincubating various concentrations of the inhibitor with 5 uL reaction mixture containing 16 nM NSD2 [1-1365] and 2 uM SAM (USB, 10601) in reaction buffer. After 20 min preincubation, 5 uL solution containing 800 nM nucleosome (purified from mouse liver) in reaction buffer was added to initiate the reaction. The reaction was stopped by 3 μL quenching solution containing 2.5% TFA with 320 nM d4-SAH after 90 min.
The SAH production from the enzymatic assays were monitored by LC-MS/MS on an API 4000 triple quadrupole mass spec with Turbolon Spray (Applied Biosystem) coupled with Prominenece UFLC(Shimazu). Liquid chromatography was performed on a Chromolith FastGradient HPLC column (RP-18e, 25-2 mm, from Merck) at a flow rate of 0.8 ml/min. The column was connected directly to the turbo ion electrospray operating in the positive-ion mode. Mobile phase A is 0.1% FA and 2% methanol in water and mobile phase B is 0.1% FA in ACN. Injection volume was 3 μl and the autosampler was kept at 4 degree. SAH and d4-SAH were simultaneously monitored. Data were acquired and processed by Analyst software.
To quantify the formed SAH, d4-SAH was added as internal standard (IS). A series of SAH (Sigma, A9384) solution at varying concentration (1-500 nM in reaction buffer) was mixed with quenching solution mentioned above. Then LC-MS/MS was carried out on API 4000 LC/MS/MS system to detect both SAH and d4-SAH. The plot of SAH peak area/IS peak area vs SAH concentration was used to generate the normalization factor of SAH. The SAH production from real enzymatic reaction was derived from the standard curve of SAH. The down-limit of our system for the detection of SAH is around 1-2 nM, and the linear range can reach up to 500 nM.
As for `Nc1nccc2c1ncn2Cc1cc(-c2ccc(F)c(F)c2)ncc1N1CCC[C@](N)(Cc2nccs2)C1` [Example 48, (S)-1-((5-(3-amino-3-(thiazol-2-ylmethyl)piperidin-1-yl)-2-(3,4-difluorophenyl)pyridin-4-yl)methyl)-1H-imidazo[4,5-c]pyridin-4-amine], the IC50 was in the range of 1 to 10 nM.

The assay is the same for the next values; noted with them: read-out: NSD2 IC50.
Take `CS(=O)(=O)CC1(N)CCCN(c2cnc(-c3ccc(F)c(F)c3)cc2Cn2cnc3c(N)ncnc32)C1` (stereo not shown) [Example 298, 9-((5-(3-amino-3-((methylsulfonyl)methyl)piperidin-1-yl)-2-(3,4-difluorophenyl)pyridin-4-yl)methyl)-9H-purin-6-amine]: the IC50 was > 1000 nM.

`Nc1ncnc2c1ncn2Cc1cc(-c2ccc(F)c(F)c2)ncc1N1CCCC(N)(C(F)C(F)F)C1` (stereo not shown) [Example 300, 9-((5-(3-amino-3-(1,2,2-trifluoroethyl)piperidin-1-yl)-2-(3,4-difluorophenyl)pyridin-4-yl)methyl)-9H-purin-6-amine]: the IC50 lay within 10 to 1000 nM.

As to `Nc1ncnc2c1ncn2Cc1cc(-c2ccc(F)c(F)c2)ncc1N1CCC(O)C(N)(CC(F)F)C1` (stereo not shown) [Example 301, 3-amino-1-(4-((6-amino-9H-purin-9-yl)methyl)-6-(3,4-difluorophenyl)pyridin-3-yl)-3-(2,2-difluoroethyl)piperidin-4-ol], the IC50 was in the range of 10 to 1000 nM.

On to `C[C@@H]1CN(c2cnc(-c3ccc(F)cc3)cc2Cn2cnc3c(N)ncnc32)C[C@@](N)(CC(F)F)C1` [Example 307, 9-((5-((3S,5S)-3-amino-3-(2,2-difluoroethyl)-5-methylpiperidin-1-yl)-2-(4-fluorophenyl)pyridin-4-yl)methyl)-9H-purin-6-amine], for which the IC50 is > 1000 nM.

`Nc1ncnc2c1ncn2Cc1cc(-c2ccc(F)c(F)c2)ncc1N1C[C@H](N)C[C@H](F)C1` [Example 309, 9-((5-((3R,5S)-3-amino-5-fluoropiperidin-1-yl)-2-(3,4-difluorophenyl)pyridin-4-yl)methyl)-9H-purin-6-amine]: the IC50 was 10 to 1000 nM.

In the case of `C[C@H]1CC[C@@H](N)CN1c1cnc(-c2ccc(F)c(F)c2)cc1Cn1cnc2c(N)ncnc21` [Example 310, 9-((5-((2S,5R)-5-amino-2-methylpiperidin-1-yl)-2-(3,4-difluorophenyl)pyridin-4-yl)methyl)-9H-purin-6-amine], the IC50 was > 1000 nM.

Regarding `Nc1ncnc2c1ncn2Cc1cc(-c2ccc(F)c(F)c2)ncc1N1CCC[C@@H](N)[C@H]1COC(F)F` [Example 311, 9-((5-((2S,3R)-3-amino-2-((difluoromethoxy)methyl)piperidin-1-yl)-2-(3,4-difluorophenyl)pyridin-4-yl)methyl)-9H-purin-6-amine], the IC50 lay in the range of 10 to 1000 nM.

Take `Nc1ncnc2c1ncn2Cc1cc(-c2ccc(F)c(F)c2)ncc1N1CCC[C@@H](N)[C@H]1CO` [Example 312, ((2S,3R)-3-amino-1-(4-((6-amino-9H-purin-9-yl)methyl)-6-(3,4-difluorophenyl)pyridin-3-yl)piperidin-2-yl)methanol]: the IC50 was 10 to 1000 nM.

`Nc1ncnc2c1ncn2Cc1cc(-c2ccc(F)c(F)c2)ncc1N1CCC[C@@H](N)[C@H]1COCC(F)F` [Example 313, 9-((5-((2S,3R)-3-amino-2-((2,2-difluoroethoxy)methyl)piperidin-1-yl)-2-(3,4-difluorophenyl)pyridin-4-yl)methyl)-9H-purin-6-amine]: the IC50 lay in the range of 10 to 1000 nM.

For `Nc1ncnc2c1ncn2Cc1cc(-c2ccc(F)c(F)c2)ncc1N1CCC[C@@H](N)[C@H]1CCO` [Example 314, 2-((2R,3R)-3-amino-1-(4-((6-amino-9H-purin-9-yl)methyl)-6-(3,4-difluorophenyl)pyridin-3-yl)piperidin-2-yl)ethan-1-ol], the IC50 lay within 10 to 1000 nM.

Turning to `CNC(=O)[C@@H]1[C@H](N)CCCN1c1cnc(-c2ccc(F)c(F)c2)cc1Cn1cnc2c(N)ncnc21` [Example 315, (2S,3R)-3-amino-1-(4-((6-amino-9H-purin-9-yl)methyl)-6-(3,4-difluorophenyl)pyridin-3-yl)-N-methylpiperidine-2-carboxamide], the IC50 is > 1000 nM.

With `Nc1ncnc2c1ncn2Cc1cc(-c2ccc(F)c(F)c2)ncc1N1CCC[C@@H](N)[C@H]1[C@@H](O)C(F)(F)F` [Example 316, (R)-1-((2S,3R)-3-amino-1-(4-((6-amino-9H-purin-9-yl)methyl)-6-(3,4-difluorophenyl)pyridin-3-yl)piperidin-2-yl)-2,2,2-trifluoroethan-1-ol], the IC50 was > 1000 nM.

As for `CN(C)C(=O)[C@@H]1[C@H](N)CCCN1c1cnc(-c2ccc(F)c(F)c2)cc1Cn1cnc2c(N)ncnc21` [Example 317, (2S,3R)-3-amino-1-(4-((6-amino-9H-purin-9-yl)methyl)-6-(3,4-difluorophenyl)pyridin-3-yl)-N,N-dimethylpiperidine-2-carboxamide], the IC50 was > 1000 nM.

For the molecule `NC(=O)[C@@H]1[C@H](N)CCCN1c1cnc(-c2ccc(F)c(F)c2)cc1Cn1cnc2c(N)ncnc21` [Example 318, (2S,3R)-3-amino-1-(4-((6-amino-9H-purin-9-yl)methyl)-6-(3,4-difluorophenyl)pyridin-3-yl)piperidine-2-carboxamide], the IC50 is > 1000 nM.

Consider `Nc1ncnc2c1ncn2Cc1cc(-c2ccc(F)c(F)c2)ncc1N1CCC[C@@H](N)[C@H]1C(=O)O` [Example 319], for which the IC50 was > 1000 nM.

As to `NC(=O)C[C@@H]1[C@H](N)CCCN1c1cnc(-c2ccc(F)c(F)c2)cc1Cn1cnc2c(N)ncnc21` [Example 320, 2-((2R,3R)-3-amino-1-(4-((6-amino-9H-purin-9-yl)methyl)-6-(3,4-difluorophenyl)pyridin-3-yl)piperidin-2-yl)acetamide], the IC50 is > 1000 nM.

Take `Nc1ncnc2c1ncn2Cc1cc(-c2ccc(F)c(F)c2)ncc1N1CCCC2(COCCN2)C1` (stereo not shown) [Example 321, 9-((2-(3,4-difluorophenyl)-5-(4-oxa-1,8-diazaspiro[5.5]undecan-8-yl)pyridin-4-yl)methyl)-9H-purin-6-amine]: the IC50 is > 1000 nM.

Turning to `Nc1ncnc2c1ncn2Cc1cc(-c2ccc(F)c(F)c2)ncc1N1CCC[C@@H](N)[C@H]1c1ccccc1` [Example 323, 9-((5-((2R,3R)-3-amino-2-phenylpiperidin-1-yl)-2-(3,4-difluorophenyl)pyridin-4-yl)methyl)-9H-purin-6-amine], the IC50 is > 1000 nM.

Take `Nc1ncnc2c1ncn2Cc1cc(-c2ccc(F)c(F)c2)ncc1N1CCCC(N)C1=O` (stereo not shown) [Example 324, 3-amino-1-(4-((6-amino-9H-purin-9-yl)methyl)-6-(3,4-difluorophenyl)pyridin-3-yl)piperidin-2-one]: the IC50 was > 1000 nM.

`Nc1ncnc2c1ncn2Cc1cc(-c2ccc(F)c(F)c2)ncc1N1C[C@H](N)CCC1=O` [Example 325, (R)-5-amino-1-(4-((6-amino-9H-purin-9-yl)methyl)-6-(3,4-difluorophenyl)pyridin-3-yl)piperidin-2-one]: the IC50 is > 1000 nM.

Another assay relates to cellular H3K36me2 level in multiple myeloma cell line KMS11 (t(4;14)+). The assay can be described thus: H3K36me2 cellular ELISA assay in KMS11-Par line. The note with it: Homo sapiens, KMS-11; KMS11-Par line (t(4;14)+), 72 hours treatment, ELISA; read-out: H3K36me2 ELISA in KMS11-Par. The class given is cell-based. Here is the method: H3K36Me2 Cellular ELISA Assay in KMS11-Par Line
An ELISA (enzyme-linked immunosorbent assay) based assay was used to test the ability of candidate compound to reduce cellular H3K36me2 level in multiple myeloma cell line KMS11 (t(4;14)+). KMS11 (Horizon Discovery Ltd.) cells are maintained in RPM11640 media with 12.5% FBS and 50 U/ml Penicillin-Streptomycin. For assay compound treatment, single cell suspension was prepared in Opti-MEM supplemented with B-27 and N2 supplement (Invitrogen 11058-021, 17504-044, 17502-048) for ELISA and in maintenance media for cellTiter Glo (CTG) viability assay. One day prior to cell treatment, 1,250 KMS11 cells were seeded into 384-well Greiner CellStar TC plate (Greiner #781086) at the final volume of 30 μL/well.
Cells were treated with tested compounds at the desired concentration for 72 hours. Crude histone lysate was extracted by 0.4M HCl following neutralization by 0.5M Sodium phosphate, dibasic (Na2HPO4), pH ˜12.5. Equal amount of histone lysate was loaded to Corning 384-well high biding plate (Corning #3577, black) for H3K36m2 and to Thermo 384-well high binding Nunc plate (Thermo #460372, white) for total H3.
Histone bound plates were washed and blocked with 5% BSA. […] The abundance of H3K36me2 and total H3 was measured by Chemiluminesce on a plate reader. Cell viability was monitored on a parallel seeded plate with CellTiter-Glo reagent (Promega #G7573).
On to `Nc1nccc2c1ncn2Cc1cc(-c2ccc(F)c(F)c2)ncc1N1CCC[C@](N)(Cc2nccs2)C1` [Example 48, (S)-1-((5-(3-amino-3-(thiazol-2-ylmethyl)piperidin-1-yl)-2-(3,4-difluorophenyl)pyridin-4-yl)methyl)-1H-imidazo[4,5-c]pyridin-4-amine], for which the IC50 is 464 nM.
